Laboratory results from the NIST ThermoML archive (doi:10.1021/je700260f).
“And” between values parts separate entries of the source, which are not always exact repeats. Equal entries are not always repeated.

Details: Liquid, Vibrating tube method

FC(C(F)(F)F)C(F)(F)F [1,1,1,2,3,3,3-heptafluoropropane]
Details | mass density
283.14 K, 31470 kPa | 1570.9 kg/m3
283.14 K, 31923 kPa | 1572.2 kg/m3
283.14 K, 31954 kPa | 1572.2 kg/m3
283.14 K, 31990 kPa | 1572.3 kg/m3
283.14 K, 32053 kPa | 1572.5 kg/m3
283.14 K, 32196 kPa | 1572.9 kg/m3
283.14 K, 32239 kPa | 1573 kg/m3
283.14 K, 32276 kPa | 1573 kg/m3
283.14 K, 32317 kPa | 1573.1 kg/m3
283.14 K, 32360 kPa | 1573.2 kg/m3
283.14 K, 32439 kPa | 1573.5 kg/m3
283.14 K, 32476 kPa | 1573.6 kg/m3
283.14 K, 32513 kPa | 1573.7 kg/m3
283.14 K, 32546 kPa | 1573.8 kg/m3
283.14 K, 32585 kPa | 1573.8 kg/m3
283.14 K, 32618 kPa | 1574 kg/m3
283.14 K, 32651 kPa | 1574 kg/m3
283.14 K, 32687 kPa | 1574.2 kg/m3
283.14 K, 32724 kPa | 1574.4 kg/m3
283.14 K, 32761 kPa | 1574.4 kg/m3
283.14 K, 32793 kPa | 1574.4 kg/m3
283.14 K, 32841 kPa | 1574.7 kg/m3
283.14 K, 32986 kPa | 1574.9 kg/m3
283.14 K, 33019 kPa | 1575.2 kg/m3
283.14 K, 33051 kPa | 1575.2 kg/m3
283.14 K, 33098 kPa | 1575.1 kg/m3
283.14 K, 33128 kPa | 1575.4 kg/m3
283.14 K, 33158 kPa | 1575.5 kg/m3
283.14 K, 33205 kPa | 1575.6 kg/m3
283.14 K, 33237 kPa | 1575.7 kg/m3
283.14 K, 33312 kPa | 1575.9 kg/m3
283.15 K, 461 kPa | 1449.6 kg/m3 and 1449.7 kg/m3 and 1449.5 kg/m3
283.15 K, 462 kPa | 1449.6 kg/m3 and 1449.5 kg/m3 and 1449.7 kg/m3
283.15 K, 463 kPa | 1449.6 kg/m3
283.15 K, 465 kPa | 1449.6 kg/m3
283.15 K, 485 kPa | 1449.7 kg/m3
283.15 K, 513 kPa | 1449.9 kg/m3
283.15 K, 538 kPa | 1450.1 kg/m3
283.15 K, 571 kPa | 1450.2 kg/m3
283.15 K, 601 kPa | 1450.5 kg/m3
283.15 K, 635 kPa | 1450.8 kg/m3
283.15 K, 666 kPa | 1450.9 kg/m3
283.15 K, 696 kPa | 1451.1 kg/m3
283.15 K, 723 kPa | 1451.2 kg/m3
283.15 K, 745 kPa | 1451.3 kg/m3
283.15 K, 785 kPa | 1451.6 kg/m3
283.15 K, 825 kPa | 1451.8 kg/m3
283.15 K, 870 kPa | 1452 kg/m3
283.15 K, 902 kPa | 1452.3 kg/m3
283.15 K, 2647 kPa | 1462.4 kg/m3
283.15 K, 2695 kPa | 1462.6 kg/m3
283.15 K, 2733 kPa | 1462.7 kg/m3
283.15 K, 2772 kPa | 1462.9 kg/m3
283.15 K, 2817 kPa | 1463.3 kg/m3
283.15 K, 2855 kPa | 1463.4 kg/m3
283.15 K, 2910 kPa | 1463.7 kg/m3
283.15 K, 2943 kPa | 1464 kg/m3
283.15 K, 2982 kPa | 1464.2 kg/m3
283.15 K, 3012 kPa | 1464.3 kg/m3
283.15 K, 3043 kPa | 1464.5 kg/m3
283.15 K, 3065 kPa | 1464.6 kg/m3
283.15 K, 3097 kPa | 1464.7 kg/m3
283.15 K, 3117 kPa | 1464.9 kg/m3
283.15 K, 3653 kPa | 1467.8 kg/m3
283.15 K, 3681 kPa | 1467.9 kg/m3
283.15 K, 3713 kPa | 1468.1 kg/m3
283.15 K, 3737 kPa | 1468.2 kg/m3
283.15 K, 3764 kPa | 1468.5 kg/m3
283.15 K, 3789 kPa | 1468.4 kg/m3
283.15 K, 3818 kPa | 1468.6 kg/m3
283.15 K, 3851 kPa | 1468.8 kg/m3
283.15 K, 3880 kPa | 1469 kg/m3
283.15 K, 3906 kPa | 1469.1 kg/m3
283.15 K, 3935 kPa | 1469.3 kg/m3
283.15 K, 3961 kPa | 1469.4 kg/m3
283.15 K, 4806 kPa | 1473.8 kg/m3
283.15 K, 4895 kPa | 1474.2 kg/m3
283.15 K, 4922 kPa | 1474.4 kg/m3
283.15 K, 4945 kPa | 1474.4 kg/m3
283.15 K, 5000 kPa | 1474.7 kg/m3
283.15 K, 5032 kPa | 1474.9 kg/m3
283.15 K, 5060 kPa | 1475.1 kg/m3
283.15 K, 5088 kPa | 1475.3 kg/m3
283.15 K, 5115 kPa | 1475.2 kg/m3
283.15 K, 5147 kPa | 1475.5 kg/m3
283.15 K, 5176 kPa | 1475.7 kg/m3
283.15 K, 5204 kPa | 1475.8 kg/m3
283.15 K, 5232 kPa | 1476 kg/m3
283.15 K, 5260 kPa | 1476.1 kg/m3
283.15 K, 5284 kPa | 1476.2 kg/m3
283.15 K, 5323 kPa | 1476.4 kg/m3
283.15 K, 5350 kPa | 1476.5 kg/m3
283.15 K, 5373 kPa | 1476.8 kg/m3
283.15 K, 5402 kPa | 1476.8 kg/m3
283.15 K, 5425 kPa | 1477 kg/m3
283.15 K, 5522 kPa | 1477.4 kg/m3
283.15 K, 5563 kPa | 1477.6 kg/m3
283.15 K, 5594 kPa | 1477.8 kg/m3
283.15 K, 5634 kPa | 1478 kg/m3
283.15 K, 5666 kPa | 1478.1 kg/m3
283.15 K, 6204 kPa | 1480.7 kg/m3
283.15 K, 6271 kPa | 1480.9 kg/m3
283.15 K, 6297 kPa | 1481.2 kg/m3
283.15 K, 6322 kPa | 1481.4 kg/m3
283.15 K, 6344 kPa | 1481.4 kg/m3
283.15 K, 6375 kPa | 1481.6 kg/m3
283.15 K, 6406 kPa | 1481.7 kg/m3
283.15 K, 6431 kPa | 1481.9 kg/m3
283.15 K, 6461 kPa | 1481.9 kg/m3
283.15 K, 6486 kPa | 1482.3 kg/m3
283.15 K, 6517 kPa | 1482.3 kg/m3
283.15 K, 6547 kPa | 1482.4 kg/m3
283.15 K, 6577 kPa | 1482.5 kg/m3
283.15 K, 6611 kPa | 1482.7 kg/m3
283.15 K, 6635 kPa | 1482.9 kg/m3
283.15 K, 6659 kPa | 1483.1 kg/m3
283.15 K, 6686 kPa | 1483.1 kg/m3
283.15 K, 6713 kPa | 1483.1 kg/m3
283.15 K, 6738 kPa | 1483.2 kg/m3
283.15 K, 6762 kPa | 1483.3 kg/m3
283.15 K, 6790 kPa | 1483.5 kg/m3
283.15 K, 6822 kPa | 1483.7 kg/m3
283.15 K, 6853 kPa | 1483.9 kg/m3
283.15 K, 6877 kPa | 1484 kg/m3
283.15 K, 6913 kPa | 1484.2 kg/m3
283.15 K, 6937 kPa | 1484.3 kg/m3
283.15 K, 6998 kPa | 1484.5 kg/m3
283.15 K, 7022 kPa | 1484.7 kg/m3
283.15 K, 7050 kPa | 1484.8 kg/m3
283.15 K, 7079 kPa | 1485 kg/m3
283.15 K, 7107 kPa | 1485 kg/m3
283.15 K, 7134 kPa | 1485.2 kg/m3
283.15 K, 7154 kPa | 1485.2 kg/m3
283.15 K, 7185 kPa | 1485.5 kg/m3
283.15 K, 7209 kPa | 1485.6 kg/m3
283.15 K, 7237 kPa | 1485.7 kg/m3
283.15 K, 7266 kPa | 1485.9 kg/m3
283.15 K, 7293 kPa | 1485.9 kg/m3
283.15 K, 7325 kPa | 1486.1 kg/m3
283.15 K, 7349 kPa | 1486.2 kg/m3
283.15 K, 7385 kPa | 1486.3 kg/m3
283.15 K, 7415 kPa | 1486.5 kg/m3
283.15 K, 7443 kPa | 1486.7 kg/m3
283.15 K, 8348 kPa | 1490.8 kg/m3
283.15 K, 8383 kPa | 1491.1 kg/m3
283.15 K, 8413 kPa | 1491.1 kg/m3
283.15 K, 8453 kPa | 1491.2 kg/m3
283.15 K, 8481 kPa | 1491.5 kg/m3
283.15 K, 8520 kPa | 1491.6 kg/m3
283.15 K, 8545 kPa | 1491.6 kg/m3
283.15 K, 8576 kPa | 1491.9 kg/m3
283.15 K, 8606 kPa | 1492 kg/m3
283.15 K, 8641 kPa | 1492.2 kg/m3
283.15 K, 8667 kPa | 1492.3 kg/m3
283.15 K, 8702 kPa | 1492.4 kg/m3
283.15 K, 8724 kPa | 1492.5 kg/m3
283.15 K, 8755 kPa | 1492.6 kg/m3
283.15 K, 8782 kPa | 1492.8 kg/m3
283.15 K, 8808 kPa | 1492.9 kg/m3
283.15 K, 8841 kPa | 1492.9 kg/m3
283.15 K, 8868 kPa | 1493.1 kg/m3
283.15 K, 8904 kPa | 1493.4 kg/m3
283.15 K, 8936 kPa | 1493.4 kg/m3
283.15 K, 8973 kPa | 1493.5 kg/m3
283.15 K, 9000 kPa | 1493.8 kg/m3
283.15 K, 9041 kPa | 1493.9 kg/m3
283.15 K, 9068 kPa | 1494 kg/m3
283.15 K, 9104 kPa | 1494.2 kg/m3
283.15 K, 9140 kPa | 1494.3 kg/m3
283.15 K, 9167 kPa | 1494.5 kg/m3
283.15 K, 9194 kPa | 1494.6 kg/m3
283.15 K, 9230 kPa | 1494.7 kg/m3
283.15 K, 9266 kPa | 1495 kg/m3
283.15 K, 9294 kPa | 1495.1 kg/m3
283.15 K, 9330 kPa | 1495.1 kg/m3
283.15 K, 9361 kPa | 1495.3 kg/m3
283.15 K, 9403 kPa | 1495.5 kg/m3
283.15 K, 9441 kPa | 1495.7 kg/m3
283.15 K, 9483 kPa | 1495.8 kg/m3
283.15 K, 9641 kPa | 1496.6 kg/m3
283.15 K, 9679 kPa | 1496.6 kg/m3
283.15 K, 9707 kPa | 1496.9 kg/m3
283.15 K, 9754 kPa | 1497 kg/m3
283.15 K, 9777 kPa | 1497.2 kg/m3
283.15 K, 9809 kPa | 1497.3 kg/m3
283.15 K, 9842 kPa | 1497.5 kg/m3
283.15 K, 9875 kPa | 1497.5 kg/m3
283.15 K, 9912 kPa | 1497.8 kg/m3
283.15 K, 9941 kPa | 1497.8 kg/m3
283.15 K, 9979 kPa | 1498 kg/m3
283.15 K, 10009 kPa | 1498.1 kg/m3
283.15 K, 10055 kPa | 1498.3 kg/m3
283.15 K, 10080 kPa | 1498.4 kg/m3
283.15 K, 10109 kPa | 1498.5 kg/m3
283.15 K, 10139 kPa | 1498.7 kg/m3
283.15 K, 10164 kPa | 1498.8 kg/m3
283.15 K, 10198 kPa | 1499 kg/m3
283.15 K, 10233 kPa | 1499.2 kg/m3
283.15 K, 10254 kPa | 1499.2 kg/m3
283.15 K, 10289 kPa | 1499.3 kg/m3
283.15 K, 10314 kPa | 1499.5 kg/m3
283.15 K, 10348 kPa | 1499.7 kg/m3
283.15 K, 10370 kPa | 1499.7 kg/m3
283.15 K, 10399 kPa | 1499.7 kg/m3
283.15 K, 10424 kPa | 1500.1 kg/m3
